Patent publication US9073855B2, “BCL-2 selective apoptosis-inducing agents for the treatment of cancer and immune diseases” (AbbVie Inc., priority 2008, dated 2015)

What was measured:
GST-Bcl-XL = GST-Bcl-XL (Homo sapiens, UniProt Q07817); experiment: TR-FRET binding assay, GST-Bcl-XL with F-Bak peptide probe; settings: TR-FRET Binding Affinity, GST-Bcl-XL, F-Bak peptide probe
Outline: (§1)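 Competitive TR-FRET: GST-fusion protein, fluorescent Bak peptide probe and Tb-labelled anti-GST antibody incubated with compound dilution series (starting 50 μM as 2× stock, 10% DMSO) for 3 h at RT. Excitation 340/35 nm; Ki derived via Wang's exact competitive-binding equation.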

GST-Bcl-2 = GST-Bcl-2 (Homo sapiens, UniProt P10415); experiment: TR-FRET binding assay, GST-Bcl-2 with F-Bak peptide probe; settings: TR-FRET Binding Affinity, GST-Bcl-2, F-Bak peptide probe
GST-Bcl-2, sequence (P10415 whole entry): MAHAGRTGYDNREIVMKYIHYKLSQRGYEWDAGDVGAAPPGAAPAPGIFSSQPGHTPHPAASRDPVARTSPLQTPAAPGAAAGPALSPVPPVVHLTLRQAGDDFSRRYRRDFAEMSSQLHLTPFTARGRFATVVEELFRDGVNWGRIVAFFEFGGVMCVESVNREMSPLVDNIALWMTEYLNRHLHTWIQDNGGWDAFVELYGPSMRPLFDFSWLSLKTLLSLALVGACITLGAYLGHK
Outline: as §1

FL5.12/Bcl-2 cells = experiment: FL5.12/Bcl-2 cell viability assay under IL-3 withdrawal (CellTitre Glo); format: cell-based, murine; settings: Mus musculus, IL-3 withdrawn 48 hrs, then 24 hrs with compound
Outline: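 Viability measured with CellTiter-Glo after 24 h compound treatment at various concentrations, following 48 h IL-3 withdrawal (no WEHI-3B medium). Cells: prolymphocytic mouse FL5.12 line stably transfected to overexpress Bcl-2, cultured at 37 °C, 5% CO2.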

Canine platelets = experiment: Platelet cell viability assay (platelet-rich plasma, Cell Titer Glo); format: cell-based; settings: Canis lupus familiaris, 5 h, isolated canine platelets ex vivo, five hours at 37° C.
Description: After the incubation, platelets were equilibrated to room temperature for 20 minutes and then an equal volume of Cell Titer Glo reagent (Promega Corporation) was added. Samples were mixed for two minutes and then allowed to equilibrate for an additional 10 minutes at room temperature. The luminescence generated from the samples was quantitated using an LJL Analyst plate reader.
The effect of compounds on platelet survival can be directly evaluated ex vivo by examining the viability of isolated canine platelets in the presence of various concentrations of compound.

GST-Bcl-XL, sequence (Q07817 whole entry, the tested form may be a part): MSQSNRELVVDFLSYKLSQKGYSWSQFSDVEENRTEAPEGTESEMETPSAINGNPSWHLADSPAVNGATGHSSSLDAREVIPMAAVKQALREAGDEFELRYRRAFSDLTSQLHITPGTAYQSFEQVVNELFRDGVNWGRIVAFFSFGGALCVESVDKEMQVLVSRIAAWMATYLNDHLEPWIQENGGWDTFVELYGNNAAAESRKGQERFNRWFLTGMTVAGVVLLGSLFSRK

| SMILES | Ki (GST-Bcl-XL) [nM] | Ki (GST-Bcl-2) [nM] | EC50 (FL5.12/Bcl-2 cells) [nM] | EC50 (Canine platelets) [nM] |
| --- | --- | --- | --- | --- |
| CN1CCN(CCCNc2ccc(S(=O)(=O)NC(=O)c3ccc(N4CCN(CC5=C(c6ccc(Cl)cc6)CC(C)(C)CC5)CC4)cc3Oc3cccc4[nH]ccc34)cc2[N+](=O)[O-])CC1 [Example 99, 4-(4-{[2-(4-chlorophenyl)-4,4-dimethylcyclohex-1-en-1-yl]methyl}piperazin-1-yl)-2-(1H-indol-4-yloxy)-N-[(4-{[3-(4-methylpiperazin-1-yl)propyl]amino}-3-nitrophenyl)sulfonyl]benzamide] | 5.53 | 0.04 | 9 | 21700 |
| O=C(NS(=O)(=O)c1ccc(NCCCN2CCCC2)c([N+](=O)[O-])c1)c1ccc(N2CCN(CC3=C(c4ccc(Cl)cc4)CCC3)CC2)cc1Oc1cccc2[nH]ccc12 [Example 143, 4-(4-{[2-(4-chlorophenyl)cyclopent-1-en-1-yl]methyl}piperazin-1-yl)-2-(1H-indol-4-yloxy)-N-({3-nitro-4-[(3-pyrrolidin-1-ylpropyl)amino]phenyl}sulfonyl)benzamide] | 75.4 | 2.23 | 199 | > 50000 |
| CN(C)CCOc1cccc(-c2ccc(Cl)cc2)c1CN1CCN(c2ccc(C(=O)NS(=O)(=O)c3ccc(NCCCN4CCCC4)c([N+](=O)[O-])c3)c(Oc3ccccc3)c2)CC1 [Example 123, 4-[4-({4′-chloro-3-[2-(dimethylamino)ethoxy]-1,1′-biphenyl-2-yl}methyl)piperazin-1-yl]-N-({3-nitro-4-[(3-pyrrolidin-1-ylpropyl)amino]phenyl}sulfonyl)-2-phenoxybenzamide] | 1.37 | 0.015 | 87 | 2810 |
| CN(C)CCCOc1ccc(S(=O)(=O)NC(=O)c2ccc(N3CCN(CC4=C(c5ccc(Cl)cc5)CC(C)(C)CC4)CC3)cc2Oc2ccc3[nH]ccc3c2)cc1[N+](=O)[O-] [Example 100, 4-(4-{[2-(4-chlorophenyl)-4,4-dimethylcyclohex-1-en-1-yl]methyl}piperazin-1-yl)-N-({4-[3-(dimethylamino)propoxy]-3-nitrophenyl}sulfonyl)-2-(1H-indol-5-yloxy)benzamide] | 8.29 | 0.116 | 15 | 31200 |
| CC1(C)CCC(CN2CCN(c3ccc(C(=O)NS(=O)(=O)c4ccc(NCCCN5CCCC5)c([N+](=O)[O-])c4)c(Oc4cccc5[nH]ccc45)c3)CC2)=C(c2cccc(F)c2)C1 [Example 72, 4-(4-{[2-(3-fluorophenyl)-4,4-dimethylcyclohex-1-en-1-yl]methyl}piperazin-1-yl)-2-(1H-indol-4-yloxy)-N-({3-nitro-4-[(3-pyrrolidin-1-ylpropyl)amino]phenyl}sulfonyl)benzamide] | 52.4 | 3.02 | 154 | > 50000 |
| CN1CCC(Nc2ccc(S(=O)(=O)NC(=O)c3ccc(N4CCN(Cc5ccccc5-c5ccc(Cl)cc5)CC4)cc3Oc3ccccc3)cc2[N+](=O)[O-])CC1 [Example 89, 4-{4-[(4′-chloro-1,1′-biphenyl-2-yl)methyl]piperazin-1-yl}-N-({4-[(1-methylpiperidin-4-yl)amino]-3-nitrophenyl}sulfonyl)-2-phenoxybenzamide] | 7.45 | 0.129 | 65 | 32000 |
| O=C(NS(=O)(=O)c1ccc(NCC2CCOCC2)c([N+](=O)[O-])c1)c1ccc(N2CCN(Cc3ccccc3-c3ccc(Cl)cc3)CC2)cc1Oc1ccc2[nH]ccc2c1 [Example 40, 4-{4-[(4′-chloro-1,1′-biphenyl-2-yl)methyl]piperazin-1-yl}-2-(1H-indol-5-yloxy)-N-({3-nitro-4-[(tetrahydro-2H-pyran-4-ylmethyl)amino]phenyl}sulfonyl)benzamide] | > 660 | 0.534 | 165 | > 50000 |
| CN1CCC(Nc2ccc(S(=O)(=O)NC(=O)c3ccc(N4CCN(CC5=C(c6ccc(Cl)cc6)CC(C)(C)CC5)CC4)cc3Oc3ccc4[nH]ncc4c3)cc2[N+](=O)[O-])CC1 [Example 21, 4-(4-{[2-(4-chlorophenyl)-4,4-dimethylcyclohex-1-en-1-yl]methyl}piperazin-1-yl)-2-(1H-indazol-5-yloxy)-N-({4-[(1-methylpiperidin-4-yl)amino]-3-nitrophenyl}sulfonyl)benzamide] | 190 | 5.43 | 1010 | > 50000 |
| CN1CCC(Nc2ccc(S(=O)(=O)NC(=O)c3ccc(N4CCN(CC5=C(c6ccc(Cl)cc6)CC(C)(C)OC5)CC4)cc3Oc3cccc4[nH]ccc34)cc2[N+](=O)[O-])CC1 [Example 145, 4-(4-{[4-(4-chlorophenyl)-6,6-dimethyl-5,6-dihydro-2H-pyran-3-yl]methyl}piperazin-1-yl)-2-(1H-indol-4-yloxy)-N-({4-[(1-methylpiperidin-4-yl)amino]-3-nitrophenyl}sulfonyl)benzamide] | 12 | 0.03 | 4 | 3210 |
| CC1(C)CCC(CN2CCN(c3ccc(C(=O)NS(=O)(=O)c4ccc(NC5CCN(C6CCCC6)CC5)c([N+](=O)[O-])c4)c(Oc4ccc5[nH]ccc5c4)c3)CC2)=C(c2ccc(Cl)cc2)C1 [Example 26, 4-(4-{[2-(4-chlorophenyl)-4,4-dimethylcyclohex-1-en-1-yl]methyl}piperazin-1-yl)-N-({4-[(1-cyclopentylpiperidin-4-yl)amino]-3-nitrophenyl}sulfonyl)-2-(1H-indol-5-yloxy)benzamide] | > 660 | 0.14 | 35 | > 50000 |
| CC1(C)CCC(CN2CCN(c3ccc(C(=O)NS(=O)(=O)c4ccc(NC5CCN(C6CCOCC6)CC5)c([N+](=O)[O-])c4)c(Oc4ccc5[nH]ccc5c4)c3)CC2)=C(c2ccc(Cl)cc2)C1 [Example 173, 4-(4-{[2-(4-chlorophenyl)-4,4-dimethylcyclohex-1-en-1-yl]methyl}piperazin-1-yl)-2-(1H-indol-5-yloxy)-N-({3-nitro-4-[(1-tetrahydro-2H-pyran-4-ylpiperidin-4-yl)amino]phenyl}sulfonyl)benzamide] | 22.1 | 0.108 | 11 | > 50000 |
| O=C(NS(=O)(=O)c1ccc(NCC2CCOCC2)c([N+](=O)[O-])c1)c1ccc(N2CCN(Cc3ccccc3-c3ccc(Cl)cc3)CC2)cc1Oc1cccc2[nH]ccc12 [Example 45, 4-{4-[(4′-chloro-1,1′-biphenyl-2-yl)methyl]piperazin-1-yl}-2-(1H-indol-4-yloxy)-N-({3-nitro-4-[(tetrahydro-2H-pyran-4-ylmethyl)amino]phenyl}sulfonyl)benzamide] | > 660 | 0.828 | 139 | > 50000 |
| CN(C)CCOc1ccc(-c2ccc(Cl)cc2)c(CN2CCN(c3ccc(C(=O)NS(=O)(=O)c4ccc(NCC5CCOCC5)c([N+](=O)[O-])c4)c(Oc4cccc5[nH]ccc45)c3)CC2)c1 [Example 125, 4-[4-({4′-chloro-4-[2-(dimethylamino)ethoxy]-1,1′-biphenyl-2-yl}methyl)piperazin-1-yl]-2-(1H-indol-4-yloxy)-N-({3-nitro-4-[(tetrahydro-2H-pyran-4-ylmethyl)amino]phenyl}sulfonyl)benzamide] | 11.6 | 0.003 | 10 | 44800 |
